Data taken from PubChem BioAssay (NCI).
Where “and” joins values, the source holds several entries; their conditions need not be identical. Identical values can stand only once.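 Values below derive from 48-hour exposures of cells grown in 96-well plates, with endpoints linearly interpolated between the two concentrations bracketing the appropriate inhibition level. Abbreviation: GI50, concentration required for 50% inhibition of growth. TGI: concentration producing complete growth inhibition.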

How the values were obtained:
Assay in all cases: NCI tumour cell line growth inhibition, 48 h
K-562 leukemia = test system: K-562 leukemia
IGROV1 ovarian = test system: IGROV1 ovarian
KM12 colon = test system: KM12 colon
A549 NSCLC = test system: A549 NSCLC
HT29 colon = test system: HT29 colon
HOP-92 NSCLC = test system: HOP-92 NSCLC
UACC-62 melanoma = test system: UACC-62 melanoma
SF-295 CNS = test system: SF-295 CNS
SK-MEL-28 melanoma = test system: SK-MEL-28 melanoma
MDA-MB-435 = test system: MDA-MB-435
SK-OV-3 ovarian = test system: SK-OV-3 ovarian
HOP-62 NSCLC = test system: HOP-62 NSCLC
MCF7 breast = test system: MCF7 breast
MALME-3M melanoma = test system: MALME-3M melanoma
OVCAR-8 ovarian = test system: OVCAR-8 ovarian

SMILES | TGI (K-562 leukemia) | TGI (IGROV1 ovarian) | TGI (KM12 colon) | TGI (A549 NSCLC) | TGI (HT29 colon) | TGI (HOP-92 NSCLC) | TGI (UACC-62 melanoma) | TGI (SF-295 CNS) | TGI (SK-MEL-28 melanoma) | TGI (MDA-MB-435) | TGI (SK-OV-3 ovarian) | TGI (HOP-62 NSCLC) | TGI (MCF7 breast) | TGI (MALME-3M melanoma) | TGI (OVCAR-8 ovarian) | GI50 (IGROV1 ovarian) [µM] | GI50 (HOP-92 NSCLC) | GI50 (UACC-62 melanoma) [µM] | GI50 (SK-OV-3 ovarian) [µM] | GI50 (MCF7 breast) [µM]
COc1ccc(C2SC(N)=Nc3c2c(C)nn3C(=O)c2ccc(Cl)cc2)cc1 (stereo not given) | > 10 µM | > 10 µM | > 10 µM | > 10 µM | > 10 µM | > 10 µM | > 10 µM | > 10 µM | > 10 µM | > 10 µM | > 10 µM | > 10 µM | > 10 µM | > 10 µM | > 10 µM |  |  |  |  | 
CC1(C)C=C(/C=N/Nc2ccc(Br)cc2)C(C#N)=C(O)C1(C#N)C#N | > 100 µM | > 100 µM | > 100 µM | > 100 µM | > 100 µM | 65.7 µM | > 100 µM | > 100 µM | > 100 µM | > 100 µM | > 100 µM | > 100 µM | > 100 µM | > 100 µM | > 100 µM |  |  |  |  | 
CC(=O)n1nc(-c2nc3ccccc3nc2Cl)cc1Cl | > 53.2 µM | > 100 µM | 48.5 µM | > 88.5 µM | 51.9 µM | > 100 µM | > 100 µM | > 93.2 µM | > 86.3 µM | 19 µM | > 77.7 µM | 73.8 µM | > 82.6 µM | > 78.7 µM | 67.1 µM |  |  |  |  | 
CC1(C)C=[N+]([O-])C(C)(C)N1 | > 100 µM | > 100 µM | > 100 µM | > 100 µM | > 100 µM | > 100 µM | > 100 µM | > 100 µM | > 100 µM | > 100 µM | > 100 µM | > 100 µM | > 100 µM | > 100 µM | > 100 µM |  |  |  |  | 
COc1ccc(-n2c3c(c4cc(O)ccc42)C(=O)c2ccccc2C3=O)cc1 | > 100 µM | 30.8 µM | > 100 µM | > 100 µM | 18.6 µM | 47.5 µM | 25.6 µM | 17.6 µM | > 100 µM | > 100 µM | 2.73 µM | 12.7 µM | > 100 µM | > 100 µM | 13.6 µM |  |  |  |  | 
CN(C)CCOC1(Cc2ccc(Cl)cc2Cl)CCC(C(C)(C)C)CC1 (stereo not given) | 3.77 µM and 3.94 µM | 6.33 µM and 3.25 µM | 3.27 µM and 3.36 µM | 5.85 µM and 4.22 µM | 3.16 µM and 3.13 µM | 3.54 µM and 5.92 µM | 3.9 µM and 9.66 µM | 3.2 µM and 3.41 µM | 3.2 µM and 2.83 µM | 2.89 µM and 3.18 µM | 4.22 µM and 11 µM | 3.06 µM and 3.32 µM | 3.49 µM and 3.65 µM | 4.41 µM and 3.24 µM | 3.59 µM and 3.74 µM | 2.38 | 1.8 µM and 2.12 µM | 3.7 | 4.79 | 1.79
N#CC1=C(C#N)/C(=C(\C#N)C(C#N)C#N)N=C1N | > 100 µM | > 100 µM | > 100 µM | 54.9 µM | 62.1 µM | > 75 µM | 30.3 µM | > 100 µM | 52 µM | 36.7 µM | > 100 µM | > 66.6 µM | > 100 µM | 38.2 µM | > 100 µM |  |  |  |  | 
COC1C=C(NCC2(CO)CCC2)NC(N)=N1 (stereo not given) | > 100 µM | > 100 µM | > 100 µM | > 100 µM | > 100 µM | > 100 µM | > 100 µM | > 100 µM | > 100 µM | > 100 µM | > 100 µM | > 100 µM | > 100 µM | > 100 µM | > 100 µM |  |  |  |  | 
